Reference: patent publication US20100069246A1, “Herbicide Combination Comprising Dimethoxytriazinyl-Substituted Difluoromethanesulfonylanilides” (BAYER CROPSCIENCE AG, priority 2008, published 2010)

Columns and labels:
Assay in all cases: Post-emergence action, greenhouse pot test, visual scoring
Type in all cases: in vivo
[1] = tested on: Abuthilon theophrasti (ABUTH)
Procedure: (§1) Seeds or rhizome pieces of mono- and dicotyledonous harmful and useful plants were placed in peat pots (diameter 4 cm) filled with sandy loam and then covered with soil. The pots were kept in a greenhouse under optimum conditions. In addition, harmful plants encountered in paddy rice cultivation were cultivated in pots with a water level 2 cm above the soil surface.
(§2) About three weeks after the start of the cultivation, the test plants were treated at the 2- to 3-leaf stage. The herbicides, formulated as powder or liquid concentrates, were, either alone or in the combinations according to the invention, sprayed in various dosages on to the green parts of the plants using an application rate of 600 l of water/ha (converted). For further cultivation of the plants, the pots were then again kept under optimum conditions in a greenhouse.
(§3) The visual scoring of the herbicidal effects was carried out in intervals up to 21 days after the treatment. Scoring was carried out in percent in comparison to the untreated control plants. 0%=no herbicidal activity, 100%=complete herbicidal activity=complete kill.
(§4) The percentages from the treatments with the herbicides alone (=individual application) and with the combinations according to the invention (=mixtures) were employed to calculate interactions using the method of Colby. When the observed efficacies of the mixtures exceed the formal sum of the values of the tests with individual applications, they also exceed the expected value according to Colby, which is calculated using the formula below (cf. S. R. Colby; in Weeds 15 (1967) pp. 20 to 22):
(§5) Here: • A, B=activity of components A and B in percent at a dosage of a and b g of ai/ha (=gramm of active substance per hectare), respectively. • E=expected value in % at a dosage of a+b g of ai/ha.

[2] = tested on: Alopecurus myosuroides (ALOMY)
Procedure: as §1, §2, §3, §4, §5

[3] = tested on: Amaranthus retroflexus (AMARE)
Procedure: as §1, §2, §3, §4, §5

[4] = tested on: Echinochloa crus-galli (ECHCG); conditions: 21 DAT
Procedure: as §1, §2, §3, §4, §5

[5] = tested on: Fallopia (ex Polygonum) convolvulus (POLCO)
Procedure: as §1, §2, §3, §4, §5

[6] = tested on: Matricaria inodora (MATIN)
Procedure: as §1, §2, §3, §4, §5

Oryza sativa (ORYSA) = tested on: Oryza sativa (ORYSA)
Procedure: as §1, §2, §3, §4, §5

[7] = tested on: Pharbitis purpurea (PHBPU)
Procedure: as §1, §2, §3, §4, §5

Setaria viridis (SETVI) = tested on: Setaria viridis (SETVI)
Procedure: as §1, §2, §3, §4, §5

[8] = tested on: Triticum aestivum (TRZAS); conditions: 10 DAT
Procedure: as §1, §2, §3, §4, §5

Zea mays (ZEAMX) = tested on: Zea mays (ZEAMX)
Procedure: as §1, §2, §3, §4, §5

Avena fatua (AVEFA) = tested on: Avena fatua (AVEFA)
Procedure: as §1, §2, §3, §4, §5

[9] = tested on: Lolium multiflorum (LOLMU)
Procedure: as §1, §2, §3, §4, §5

Veronica persica (VERPE) = tested on: Veronica persica (VERPE)
Procedure: as §1, §2, §3, §4, §5

Viola tricolor (VIOTR) = tested on: Viola tricolor (VIOTR)
Procedure: as §1, §2, §3, §4, §5

[10] = tested on: Cyperus esculentus (CYPES); conditions: 21 DAT
Procedure: as §1, §2, §3, §4, §5

[11] = 21 DAT, component A 4 g of ai/ha
[12] = 21 DAT, component A 12 g of ai/ha
[13] = 10 DAT, component A 4 g of ai/ha
[14] = 10 DAT, component B 300 g of ai/ha
[15] = 21 DAT, component B 300 g of ai/ha
[16] = 21 DAT, component B 900 g of ai/ha
[17] = 10 DAT, component B 900 g of ai/ha
[18] = 10 DAT, component B 400 g of ai/ha
[19] = 10 DAT, component B 1200 g of ai/ha
[20] = 21 DAT, component B 400 g of ai/ha
[21] = 21 DAT, component B 1200 g of ai/ha

Compound: COc1nc(OC)nc(C(=O)c2cccc(F)c2N(C)S(=O)(=O)C(F)F)n1 [A-1]
- % activity found [1, 11]: 85%
- % activity found [1, 12]: 85%
- % activity found [2, 13]: 40%
- % activity found [2, 11]: 40%
- % activity found [3, 11]: 70%
- % activity found ([4]; component A 4 g of ai/ha): 85%
- % activity found [5, 12]: 70%
- % activity found [6, 12]: 60%
- % activity found (Oryza sativa (ORYSA); [12]): 10%
- % activity found ([7]; 10 DAT, component A 12 g of ai/ha): 60%
- % activity found [7, 11]: 60%
- % activity found (Setaria viridis (SETVI); [13]): 50%
- % activity found ([8]; component A 4 g of ai/ha): 0%
- % activity found (Zea mays (ZEAMX); [13]): 0%
- % activity found (Zea mays (ZEAMX); [12]): 0%

Compound: CC(C)(NC(=O)NCc1ccccc1Cl)c1ccccc1 [B1-1, N-[(2-chlorophenyl)methyl]-N′-(1-methyl-1-phenylethyl)urea]
- % activity found [1, 14]: 0%
- % activity found [1, 15]: 0%
- % activity found [1, 16]: 0%
- % activity found [2, 14]: 0%
- % activity found [2, 17]: 0%
- % activity found [2, 15]: 0%
- % activity found [2, 16]: 0%
- % activity found [3, 15]: 0%
- % activity found [3, 16]: 20%
- % activity found (Avena fatua (AVEFA); [14]): 0%
- % activity found (Avena fatua (AVEFA); [17]): 0%
- % activity found ([4]; component B 300 g of ai/ha): 0%
- % activity found [5, 15]: 0%
- % activity found [5, 16]: 0%
- % activity found [9, 16]: 0%
- % activity found [6, 14]: 20%
- % activity found [6, 15]: 0%
- % activity found [6, 16]: 0%
- % activity found (Oryza sativa (ORYSA); [14]): 0%
- % activity found [7, 14]: 0%
- % activity found [7, 17]: 0%
- % activity found [7, 15]: 0%
- % activity found [7, 16]: 30%
- % activity found (Setaria viridis (SETVI); [14]): 0%
- % activity found (Setaria viridis (SETVI); [17]): 0%
- % activity found (Setaria viridis (SETVI); [15]): 0%
- % activity found (Setaria viridis (SETVI); [16]): 0%
- % activity found ([8]; component B 900 g of ai/ha): 5%
- % activity found (Veronica persica (VERPE); [14]): 0%
- % activity found (Veronica persica (VERPE); [17]): 0%
- % activity found (Veronica persica (VERPE); [15]): 0%
- % activity found (Veronica persica (VERPE); [16]): 0%
- % activity found (Viola tricolor (VIOTR); [16]): 10%
- % activity found (Zea mays (ZEAMX); [14]): 0%
- % activity found (Zea mays (ZEAMX); [17]): 0%
- % activity found (Zea mays (ZEAMX); [15]): 5%
- % activity found (Zea mays (ZEAMX); [16]): 0%

Compound: Cc1ccc(NC(=O)NC(C)(C)c2ccccc2)cc1 [B2-4, N-(4-methylphenyl)-N′-(1-methyl-1-phenylethyl)urea]
- % activity found [1, 18]: 0%
- % activity found [1, 19]: 0%
- % activity found [1, 20]: 0%
- % activity found [1, 21]: 0%
- % activity found [2, 18]: 0%
- % activity found [2, 20]: 0%
- % activity found [2, 21]: 0%
- % activity found [3, 19]: 0%
- % activity found [3, 20]: 0%
- % activity found [3, 21]: 0%
- % activity found (Avena fatua (AVEFA); [20]): 0%
- % activity found (Avena fatua (AVEFA); [21]): 0%
- % activity found ([10]; component B 400 g of ai/ha): 0%
- % activity found ([10]; component B 1200 g of ai/ha): 0%
- % activity found [5, 18]: 0%
- % activity found [5, 19]: 0%
- % activity found [5, 20]: 0%
- % activity found [5, 21]: 0%
- % activity found [9, 18]: 0%
- % activity found [9, 19]: 0%
- % activity found [9, 20]: 0%
- % activity found [9, 21]: 0%
- % activity found [6, 18]: 0%
- % activity found [6, 19]: 0%
- % activity found [6, 20]: 0%
- % activity found [6, 21]: 20%
- % activity found (Oryza sativa (ORYSA); [21]): 10%
- % activity found [7, 18]: 0%
- % activity found [7, 19]: 0%
- % activity found [7, 20]: 0%
- % activity found [7, 21]: 0%
- % activity found (Setaria viridis (SETVI); [21]): 40%
- % activity found ([8]; component B 400 g of ai/ha): 0%
- % activity found ([8]; component B 1200 g of ai/ha): 0%
- % activity found (Veronica persica (VERPE); [20]): 0%
- % activity found (Veronica persica (VERPE); [21]): 0%
- % activity found (Viola tricolor (VIOTR); [18]): 0%
- % activity found (Viola tricolor (VIOTR); [19]): 0%
- % activity found (Viola tricolor (VIOTR); [20]): 0%
- % activity found (Viola tricolor (VIOTR); [21]): 0%
- % activity found (Zea mays (ZEAMX); [18]): 0%
- % activity found (Zea mays (ZEAMX); [19]): 10%
